Data taken from the supplement of paper PMC10307832.

Assays:
Assay in all cases: relative viability (nuclei count vs DMSO), 5 days (fraction); higher = more cells survive
Avagacestat + OSI-027 = compound: NC(=O)[C@@H](CCC(F)(F)F)N(Cc1ccc(-c2ncon2)cc1F)S(=O)(=O)c1ccc(Cl)cc1 [Avagacestat] + COc1cccc2cc(-c3nc([C@H]4CC[C@H](C(=O)O)CC4)n4ncnc(N)c34)[nH]c12 [OSI-027] (partner 0.5 µM)
In short: (§1)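 Lung cancer cell lines were pin-tool dosed in 1536-well plates on the day after seeding, with either a lone drug or a fixed anchor-drug dose plus five library-drug doses (not always all listed) in √10 steps. Nuclei were counted on 4× images after 5 days. Relative viability is the ratio of treated-well to vehicle-well nuclei counts, with each value a median of duplicate plates.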

Avagacestat + Lapatinib = compound: NC(=O)[C@@H](CCC(F)(F)F)N(Cc1ccc(-c2ncon2)cc1F)S(=O)(=O)c1ccc(Cl)cc1 [Avagacestat] + CS(=O)(=O)CCNCc1ccc(-c2ccc3ncnc(Nc4ccc(OCc5cccc(F)c5)c(Cl)c4)c3c2)o1 [Lapatinib] (partner 2 µM)
In short: as §1

Avagacestat + Linsitinib = compound: NC(=O)[C@@H](CCC(F)(F)F)N(Cc1ccc(-c2ncon2)cc1F)S(=O)(=O)c1ccc(Cl)cc1 [Avagacestat] + C[C@]1(O)C[C@@H](c2nc(-c3ccc4ccc(-c5ccccc5)nc4c3)c3c(N)nccn32)C1 [Linsitinib] (partner 1 µM)
In short: as §1

Avagacestat + Alpelisib = compound: NC(=O)[C@@H](CCC(F)(F)F)N(Cc1ccc(-c2ncon2)cc1F)S(=O)(=O)c1ccc(Cl)cc1 [Avagacestat] + Cc1nc(NC(=O)N2CCC[C@H]2C(N)=O)sc1-c1ccnc(C(C)(C)C(F)(F)F)c1 [Alpelisib] (partner 2 µM)
In short: as §1

Cell Line	relative viability (Avagacestat + OSI-027; first compound 0.08 µM)	relative viability (Avagacestat + OSI-027; first compound 0.253 µM)	relative viability (Avagacestat + OSI-027; first compound 0.8 µM)	relative viability (Avagacestat + OSI-027; first compound 2.53 µM)	relative viability (Avagacestat + OSI-027; first compound 8 µM)	relative viability (Avagacestat + Lapatinib; first compound 0.08 µM)	relative viability (Avagacestat + Lapatinib; first compound 0.253 µM)	relative viability (Avagacestat + Lapatinib; first compound 0.8 µM)	relative viability (Avagacestat + Lapatinib; first compound 2.53 µM)	relative viability (Avagacestat + Lapatinib; first compound 8 µM)	relative viability (Avagacestat + Linsitinib; first compound 0.08 µM)	relative viability (Avagacestat + Linsitinib; first compound 0.253 µM)	relative viability (Avagacestat + Linsitinib; first compound 0.8 µM)	relative viability (Avagacestat + Linsitinib; first compound 2.53 µM)	relative viability (Avagacestat + Linsitinib; first compound 8 µM)	relative viability (Avagacestat + Alpelisib; first compound 0.08 µM)	relative viability (Avagacestat + Alpelisib; first compound 0.253 µM)	relative viability (Avagacestat + Alpelisib; first compound 0.8 µM)	relative viability (Avagacestat + Alpelisib; first compound 2.53 µM)	relative viability (Avagacestat + Alpelisib; first compound 8 µM)
NCI-H1651	0.761	0.814	0.848	0.751	0.656	1.11	1.03	0.883	0.762	0.672	1.37	1.17	1.05	0.854	0.828	1.05	1.3	1.15	0.978	0.909
NCI-H1666	1.2	0.933	1.1	0.911	0.905	0.858	0.877	0.756	0.639	0.523	1.03	0.861	1.02	0.865	1.02	1.26	0.982	1.32	1.03	1.1
NCI-H1734	0.612	0.713	0.643	0.552	0.515	1.52	1.26	1.11	1.07	1.07	1.2	0.924	0.946	0.819	0.782	0.896	0.641	0.737	0.674	0.67
NCI-H1755	0.816	0.748	0.742	0.654	0.579	1.05	1.29	1.22	1.04	1.02	1.05	1.05	1.03	0.991	0.951	1.24	1.1	1.05	0.939	0.777
NCI-H1792	1.03		0.628		0.677	1.26	0.681	1.76	0.915	0.758	0.648	0.424	0.692	0.383	0.368	0.871	0.618	0.774	0.541	0.562
NCI-H1793	0.327	0.338	0.373	0.233	0.249	1.13	0.648	1.08	0.627	0.769	1.01	0.926	1.02	0.913	0.657	0.967	0.777	0.822	0.769	0.672
NCI-H1915	0.744	0.639	0.596	0.582	0.568	0.965	1.12	1.12	0.988	0.949	1.11	1.18	1.08	1.08	1.09	1.03	1.12	1.04	1.03	1.02
NCI-H1944	0.394	0.501	0.404	0.343	0.38	0.714	0.937	0.77	0.669	0.756	1.28	1.15	1.47	1.04	1.01	0.874	0.857	0.844	0.667	0.758
